# Results: US20170022258A1, “PEPTIDES FOR USE IN THE TREATMENT OF IL-1 RELATED DISEASES AND CONDITIONS” (C4M PHARMACEUTICALS PTY LTD., priority 2011, published 2017)
# Non-standard residues stand in square brackets, D forms with d. Residues, ends and D or L forms follow the SMILES beside them.
# Legend:
# horses = assay: Testing of peptide 4 in horses for treatment of osteoarthritis and equine laminitis; type: in vivo, horse; details: 1 mg
# Description: The peptides were prepared as compositions containing 1 mg of peptide dissolved in 5 ml of solution, comprising water, bicarbonate and either benzyl alcohol or methanol.
# [1] = tested on: IL-1α-induced IL-8 production by Caco2 cells; assay: IL-1α induced IL-8 production by Caco2 colonic adenocarcinoma cells; type: cell-based, human; details: peptide 100 ng/ml, FIG. 2
# Description: (§1) Human colon epithelial cell lines HT-29 and Caco2 obtained from the European Collection of Animal Cell Cultures (ECACC) were used in cell cultures. Cells were routinely cultured at 37° C. in an atmosphere of 5% CO2 in 80 cm^2 tissue culture flasks in McCoy's and DMEM medium, respectively, supplemented with penicillin (10 u/ml), streptomycin (10 μg/ml), fungizone (0.5 μg/ml), and 10% (v/v) FCS (referred to as complete medium) until confluent.
# (§2) Confluent monolayers were sub-cultured into 6-well plates for experimental protocols. Cells were grown in 6-well plates until confluent. Twenty-four hours prior to the experiment the confluent monolayers were washed and cultured in FCS-free McCoy's medium. Growth arrested cultures were then treated with fresh FCS-free medium and stimulated with vehicle controls or various doses of IL-1α added alone or in combination with other pro-inflammatory cytokines (TNF-α, IFN-γ) in the presence or absence of the peptide of sequence 4 or IL-1 ra, in a dose and time dependent manner.
# Supernatants were collected, centrifuged to remove cellular debris and stored at −70° C. until assayed for extracellular inflammatory mediators. […] Production of soluble mediators was assessed by commercially available ELISA in supernatants, RT-PCR in total RNA extractants and nitric oxide, as described in Kolios, G, et al. (1995). […]
# cows = assay: Testing of peptide 4 in cows for treatment of mastitis; type: in vivo, cow; details: 1 mg, IV
# Description: The peptides were prepared as compositions containing 1 mg of peptide dissolved in 5 ml of a solution comprising water, bicarbonate and either benzyl alcohol or methanol.
# [2] = Human plasma stability trials; type: in vitro ADME; details: 37° C., 12 hours, read-out: ½ Life human plasma
# Description: 1 mg of each peptide was added to the plasma and the solution was gently agitated for 2 minutes at room temperature before standing at 37° C. for a period of 12 hours.
# [3] = tested on: IL-1α-induced IL-8 production by HT-29 cells; assay: IL-1α induced IL-8 production by HT-29 colonic epithelial cells; type: cell-based, human; details: 10 ng/ml IL-1α
# Description: as §1, §2
# Supernatants were collected, centrifuged to remove cellular debris and stored at −70° C. until assayed for extracellular inflammatory mediators. Total RNA for RT-PCR was extracted as described above. Cell counting and viability was routinely checked at the beginning and the end of the experiment by phase microscopy and by trypan blue exclusion using representative wells. Mycoplasma tests were performed during the experimental protocol. Production of soluble mediators was assessed by commercially available ELISA in supernatants, RT-PCR in total RNA extractants and nitric oxide, as described in Kolios, G, et al. (1995). Br J Pharmacol, 116, 2866-2872, the contents of which are incorporated herein by reference.
# HT 29 and Caco2 colonic epithelial cell lines were stimulated with 10 ng/ml of IL-la in the presence of 100 or 500 ng/ml of the peptide of sequence 4.
# [4] = Stability of peptide once dissolved in solution (1 month); type: physicochemical; details: 1 mg in 5 ml water, bicarbonate and benzyl alcohol (19, 4) or methanol (13, 14)
# Description: Each of the peptides having the sequences 13, 14, 19 and 4 were tested to determine their stability in a solution containing (preferred composition above) water, bicarbonate and either benzyl alcohol (peptide 19 and 4) or methanol (peptide 13 and 14). Each of the peptides were held for a period of 1 month at either 4° C. or at room temperature.
# 1 mg of each peptide was added to the water, bicarbonate and either benzyl alcohol or methanol solution and the solution was gently agitated for 1 hour at room temperature before standing at either 4° C. or at room temperature for a period of 1 month.
# [5] = tested on: cancer patients with cachexia; assay: Treatment of cachexia in cancer patients (case reports); type: in vivo, human
# Description: Patients are typically diagnosed as having cachexia where weight loss of at least 5% in 12 months or less (or BMI<20 kg/m^2), is accompanied by at least three of the following conditions: • Decreased muscle strength • Fatigue • Low fat-free mass index; and • Abnormal blood biochemistry: increased inflammatory markers (CRP, IL-6), anaemia (Hb<12 g/dL) and low serum albumin (<3.2 g/dL)
# The peptide was administered by subcutaneous injection every second day for two weeks, in a composition containing the peptide dissolved in 5 ml of a solution comprising water, bicarbonate and either benzyl alcohol or methanol.
# The peptide was administered by subcutaneous injection every second day for one month, in a composition containing the peptide dissolved in 5 ml of a solution comprising water, bicarbonate and either benzyl alcohol or methanol
# The peptide was administered by subcutaneous injection every second day, in a composition containing the peptide dissolved in 5 ml of a solution comprising water, bicarbonate and either benzyl alcohol or methanol.
# The peptide was administered by subcutaneous injection every second day for two months, in a composition containing the peptide dissolved in 5 ml of a solution comprising water, bicarbonate and either benzyl alcohol or methanol.
# The peptide was administered by subcutaneous injection every second day for one week, in a composition containing the peptide dissolved in 5 ml of a solution comprising water, bicarbonate and either benzyl alcohol or methanol.
# The peptide was administered by subcutaneous injection every second day for one month, in a composition containing the peptide dissolved in 5 ml of a solution comprising water, bicarbonate and either benzyl alcohol or methanol.
# The peptide was administered by subcutaneous injection every second day for one month in a composition containing the peptide dissolved in 5 ml of a solution comprising water, bicarbonate and either benzyl alcohol or methanol.
# [6] = Example 16: breast cancer, 1 mg subcutaneous every second day for one month
smiles,measurement,setting,value
"CC(=O)N[C@H](CC(C)C)C(=O)N1CCC[C@@H]1C(=O)N[C@H](CC(C)C)C(=O)N[C@H](C)C(=O)N[C@H](Cc1ccc(O)cc1)C(=O)N1CCC[C@@H]1C(=O)N[C@H](CCC(N)=O)C(=O)N[C@H](Cc1c[nH]c2ccccc12)C(=O)N[C@H](Cc1ccc(O)cc1)C(=O)NCC(=O)N1CCC[C@@H]1C(=O)N[C@@H](C(=O)N[C@H](Cc1c[nH]c2ccccc12)C(=O)N[C@H](CCC(=O)O)C(=O)N[C@H](Cc1ccccc1)C(=O)O)[C@H](C)O [SEQ ID NO. 4, Ac-LPLAYPQWYGPTWEF] (Ac-[dL][dP][dL][dA][dY][dP][dQ][dW][dY]G[dP][dT][dW][dE][dF]-OH; C-terminus assumed)",Duration,"horses; Laminitis, IV",72 h
same,Effect,"horses; Laminitis, IV",Pronounced
same,Duration,"horses; OA, Joint",48 h
same,Effect,"horses; OA, Joint",Moderate
same,Effect on IL-1α-induced IL-8 secretion,[1],significant decrease
same,Duration,cows,72 h
same,Effect,cows,Pronounced
same,half-life,[2],18.1 h
same,IL-1α-induced IL-8 production,"[3]; peptide 500 ng/ml, IL-1α alone 67.455±0.125, n=6, p<0.01",40.705±2.56 ng/ml per 106 cells
same,Effect on IL-1α-induced IL-8 production,"[3]; peptide 100 or 500 ng/ml, FIG. 1",reduced IL-1α-induced IL-8 production in a concentration dependent manner
same,"Stability of peptide once dissolved in solution (at 1 month), 4° C. (month)",[4]; 4° C.,100%
same,"Stability of peptide once dissolved in solution (at 1 month), Room Temp (month)",[4]; room temperature,96%
same,Side effects due to the administration of the peptide,"[5]; Example 9: breast cancer, 1 mg subcutaneous every second day for two weeks",No side effects were noted
same,Symptoms of cachexia,"[5]; Example 9: breast cancer, 1 mg subcutaneous every second day for two weeks, after 24 hours",cachexia symptoms were alleviated
same,Symptoms of cachexia,"[5]; Example 10: adrenal adenomas, 1 mg subcutaneous every second day for one month",symptoms of cachexia were alleviated
same,Symptoms of cachexia,"[5]; Example 11: glioblastoma, 1 mg subcutaneous every second day",symptoms of cachexia were alleviated
same,Symptoms of cachexia,"[5]; Example 12: brain adenoma, 1 mg subcutaneous every second day for two months, two days after commencement",symptoms of cachexia were alleviated
same,Symptoms of cachexia,"[5]; Example 13: brain glioma, 1 mg subcutaneous every second day for one week",symptoms of cachexia were alleviated
same,Symptoms of cachexia,"[5]; Example 14: ovarian cancer, 1 mg subcutaneous every second day for one month",symptoms of cachexia were also alleviated
same,Symptoms of cachexia,"[5]; Example 15: bone cancer, 1 mg subcutaneous every second day for one month",symptoms of cachexia were alleviated
same,Symptoms of cachexia,[5]; [6],symptoms of cachexia were also alleviated
same,Weight put on,[5]; [6],5 kg
same,Symptoms of cachexia,"[5]; Example 17: breast cancer, 1 mg subcutaneous every second day for two weeks",symptoms of cachexia were alleviated
same,Symptoms of cachexia,"[5]; Example 18: bladder cancer, 1 mg subcutaneous every second day for one month, after 24 from commencement",symptoms of cachexia were alleviated
same,Symptoms of cachexia,"[5]; Example 19: colon cancer, 1 mg subcutaneous every second day for one month",symptoms of cachexia were largely alleviated
same,Symptoms of cachexia,"[5]; Example 20: colon cancer, 1 mg subcutaneous every second day for one month, one month after commencement",symptoms of cachexia had been treated
same,Symptoms of cachexia,"[5]; Example 21: glioblastoma, 1 mg subcutaneous every second day for one month, two days after commencement",cachexia started to diminish
same,Symptoms of cachexia,"[5]; Example 22: glioblastoma, 1 mg subcutaneous every second day, after 24 hours",symptoms of cachexia had been alleviated
same,Symptoms of cachexia,"[5]; Example 23: Hodgkin's lymphoma, 1 mg subcutaneous every second day for one month, after three weeks",symptoms of cachexia were alleviated
same,Weight gained,"[5]; Example 24: colon cancer, 1 mg subcutaneous every second day",~5 kg
same,Symptoms of cachexia,"[5]; Example 24: colon cancer, 1 mg subcutaneous every second day, after two weeks",symptoms of cachexia were alleviated
same,Symptoms of cachexia,"[5]; Example 25: non-Hodgkin's lymphoma, 1 mg subcutaneous every second day, after 4 days",symptoms of cachexia were alleviated
same,Symptoms of cachexia,"[5]; Example 26: pancreatic cancer, 1 mg subcutaneous every second day, after 7 days",symptoms of cachexia were alleviated
same,Symptoms of cachexia,"[5]; Example 27: liposarcoma, 1 mg subcutaneous every second day, after 3 days",symptoms of cachexia were alleviated
same,Symptoms of cachexia,"[5]; Example 28: liver cancer, 1 mg subcutaneous every second day, after one week",symptoms of cachexia were largely alleviated
